Data set [1] deals with CD81. Nature of the data set: CD81 expression in vivo in hyperlipidemic PCSK9hum/hum/LDLR+/- mice after alirocumab. As to conditions: hyperlipidemic mice expressing human PCSK9 with reduced LDLR expression (PCSK9hum/hum/LDLR+/-), after administering alirocumab. The protocol: (§1) CD81 expression in vivo in PCSK9−/−mice and in hyperlipidemic mice expressing human PCSK9 with reduced LDLR expression (PCSK9hum/hum/LDLR+/−) were tested after administering alirocumab; no changes in total CD81 levels were observed. […] Based on conflicting data, the relevant scientific literature is currently considered inadequate to conclusively address the potential impact of alirocumab on HCV infectivity. It should be noted that increased cell-surface LDLR has also been postulated to modulate HCV infectivity; statins, like alirocumab, increase cell-surface LDLR.

For data set [2] the following is noted: monkeys, 3-month, co-administered with atorvastatin at doses producing modest ALT increases; cited from earlier work.
For data set [3] the following is noted: rat, in vivo; cited from earlier work.
Data set [4] is described as follows: Patient with chronically elevated liver enzymes and bilirubin treated with Praluent brand alirocumab. Type of data set: in vivo, human. As to conditions: middle age person. The source says: A middle age person had chronically elevated AST, ALT and gamma glutamyl transferase and elevated bilirubin levels and clay colored stools. There was no viral hepatitis. […] The patient also felt less fatigued.

Data set [5] deals with CD81. The data set is described as follows: CD81 expression in vivo in PCSK9-/- mice after alirocumab. As to conditions: after administering alirocumab. The protocol:
as §1

For data set [6] the following is noted: monkey, in vivo; cited from earlier work.
The subject of data set [7] is HCV. Nature of the data set: HCV infectivity and replication kinetics in vitro with extracellular PCSK9 in presence/absence of alirocumab. Type of data set: cell-based. As to conditions: addition of extracellular PCSK9 in the presence/absence of alirocumab.
For data set [8] the following is noted: monkey, in vivo; cited from earlier work. The source holds these as a separate data set.
For data set [9] the following is noted: monkey, in vivo; cited from earlier work. The source holds these as a separate data set.
The conditions of data set [10]: monkey, cited from earlier work.
For data set [11] the following is noted: cited from earlier work.
The conditions of data set [12]: humans administered alirocumab; cited from earlier work.
For data set [13] the following is noted: rat, in vivo; cited from earlier work. This is another data set of the same source.
Setting [14] is: chronically elevated, no viral hepatitis, after treatment for 1-2 months.

Like-named read-outs stand apart in the source and are kept apart here.

In the case of alirocumab, in [1], the “total CD81 levels” value is “no changes”. Moreover, in data set [2], the liver toxicity entry is reported as “not exacerbated”. Moreover, the “alirocumab-related effects on peripheral neurons” value in [3] is “No significant alirocumab-related effects”. Moreover, in [4] (setting [14]), the ALT result is “returned to normal”, the AST entry is “returned to normal” and the gamma glutamyl transferase entry is reported as “returned to normal”. Also, the bilirubin levels entry in [4] (elevated, after treatment for 1-2 months) is recorded as “returned to normal”. Also, in [4] (after treatment), the fatigue entry is recorded as “less fatigued”. Further, the clay colored stools result in data set [4] (after treatment for 1-2 months) is “became normal”. The “total CD81 levels” value in [5] is on record as “no changes”. Moreover, the “alirocumab-related effects on peripheral neurons” value in data set [6] was “No significant alirocumab-related effects”. Moreover, in [7], the “effects on HCV infectivity” value is on record as “No effects” and the “effects on HCV replication kinetics” value was “No effects”. Further, in [8], the “effects on T-cell dependent antibody response” value was “no effects”, the “effects on cytotoxic T-cell activity” value was “no effects”, the “effects on immune cell populations” value is reported as “no effects” and the “effects on natural killer cell activity” value is recorded as “no effects”. Further, the imbalances for infections entry in data set [9] is recorded as “no imbalances”. Besides, the “sinusoidal cell defects in the liver (this phenomenon)” value in data set [10] (in vivo) is listed as “not observed”. For the same substance, in data set [10], the HDL-C levels result is given as “greatly reduced”. Further, in [11] (rat, in vivo), the “sinusoidal cell defects in the liver” value was “sinusoidal cell defects were observed”. Besides, the HDL result in data set [11] (rats administered alirocumab) is reported as “low HDL”. The HDL-C result in data set [12] is on record as “not reduced”. Moreover, the imbalances for infections result in data set [13] is “no imbalances”.
